Results published in ChEMBL document CHEMBL1201862, “PubChem BioAssay data set” (2004).
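Cells were grown in 96-well plates and exposed to each compound for 48 hours at five concentrations; endpoints were interpolated linearly between bracketing concentrations, or set to the highest concentration if not reached. At the GI50, growth is halved.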 Calls of active or inactive are those of the source. No stated cut-off is given here; in the data, active = GI50 up to about 1.1 µM and inactive = higher.

Experiments:
Assay in all cases: NCI-60 cell line screen, 48 h
KM12 = system: KM12
K562 = system: K562
OVCAR-8 = system: OVCAR-8
TK-10 = system: TK-10
RPMI-8226 = system: RPMI-8226
Malme-3M = system: Malme-3M
SK-MEL-28 = system: SK-MEL-28
CAKI-1 = system: CAKI-1
HCC 2998 = system: HCC 2998
SK-MEL-5 = system: SK-MEL-5
LXFL 529 = system: LXFL 529
U-251 = system: U-251
UACC-62 = system: UACC-62
SN12C = system: SN12C
A549 = system: A549
KM-20L2 = system: KM-20L2
SW-620 = system: SW-620
SNB-19 = system: SNB-19
OVCAR-5 = system: OVCAR-5
OVCAR-4 = system: OVCAR-4
SNB-78 = system: SNB-78
NCI-H226 = system: NCI-H226
RXF 393 = system: RXF 393
SF-539 = system: SF-539
UACC-257 = system: UACC-257
SR = system: SR
ACHN = system: ACHN
IGROV-1 = system: IGROV-1
M19-MEL = system: M19-MEL
XF498 = system: XF498
COLO 205 = system: COLO 205
DMS-273 = system: DMS-273
HOP-18 = system: HOP-18
MOLT-4 = system: MOLT-4
HL-60 = system: HL-60
HT-29 = system: HT-29
HCT-116 = system: HCT-116
RXF 631 = system: RXF 631
SK-MEL-2 = system: SK-MEL-2
M14 = system: M14
HOP-92 = system: HOP-92
OVCAR-3 = system: OVCAR-3
NCI-H522 = system: NCI-H522
UO-31 = system: UO-31
HCT-15 = system: HCT-15
SF-268 = system: SF-268
DMS-114 = system: DMS-114
LOX IMVI = system: LOX IMVI
A498 = system: A498
SNB-75 = system: SNB-75
NCI-H23 = system: NCI-H23
HOP-62 = system: HOP-62
SF-295 = system: SF-295
EKVX = system: EKVX
786-0 = system: 786-0
DLD-1 = system: DLD-1

COc1ccc(Cc2c3cc(OC)c(OC)cc3cc[n+]2C)cc1
GI50 (KM12): 9.29 µM (inactive) | GI50 (K562): 34.4 µM (inactive) | GI50 (OVCAR-8): 6.85 µM (inactive) | GI50 (TK-10): > 52.5 µM (inactive) | GI50 (RPMI-8226): 24.5 µM (inactive) | GI50 (Malme-3M): 27.2 µM (inactive) | GI50 (SK-MEL-28): 32.6 µM (inactive) | GI50 (CAKI-1): > 48.3 µM (inactive) | GI50 (HCC 2998): > 25.2 µM (inactive) | GI50 (SK-MEL-5): 21.2 µM (inactive) | GI50 (LXFL 529): 3.18 µM (inactive) | GI50 (U-251): 13.5 µM (inactive) | GI50 (UACC-62): 18.9 µM (inactive) | GI50 (SN12C): 4.93 µM (inactive) | GI50 (A549): 9.35 µM (inactive) | GI50 (KM-20L2): 10.3 µM (inactive) | GI50 (SW-620): > 100 µM (inactive) | GI50 (SNB-19): 6.81 µM (inactive) | GI50 (OVCAR-5): > 100 µM (inactive) | GI50 (OVCAR-4): 19.8 µM (inactive) | GI50 (SNB-78): 58.1 µM (inactive) | GI50 (NCI-H226): 33.1 µM (inactive) | GI50 (RXF 393): > 25.6 µM (inactive) | GI50 (SF-539): 18.7 µM (inactive) | GI50 (UACC-257): 20.4 µM (inactive) | GI50 (SR): 2.2 µM (inactive) | GI50 (ACHN): > 29.2 µM (inactive) | GI50 (IGROV-1): 38.7 µM (inactive) | GI50 (M19-MEL): 12.6 µM (inactive) | GI50 (XF498): 4.99 µM (inactive) | GI50 (COLO 205): 5.21 µM (inactive) | GI50 (DMS-273): 2.22 µM (inactive) | GI50 (HOP-18): > 27.9 µM (inactive) | GI50 (MOLT-4): > 100 µM (inactive) | GI50 (HL-60): 1.21 µM (inactive) | GI50 (HT-29): 13.4 µM (inactive) | GI50 (HCT-116): 15 µM (inactive) | GI50 (RXF 631): > 10.3 µM (inactive) | GI50 (SK-MEL-2): > 29.1 µM (inactive) | GI50 (M14): > 21.7 µM (inactive) | GI50 (HOP-92): 23.1 µM (inactive) | GI50 (OVCAR-3): 7.28 µM (inactive) | GI50 (NCI-H522): 19.9 µM (inactive) | GI50 (UO-31): > 34 µM (inactive) | GI50 (HCT-15): > 31.3 µM | GI50 (SF-268): 4.7 µM (inactive) | GI50 (DMS-114): 2.82 µM (inactive) | GI50 (LOX IMVI): > 14.2 µM (inactive) | GI50 (A498): > 100 µM (inactive) | GI50 (SNB-75): 9.25 µM (inactive) | GI50 (NCI-H23): 8.3 µM (inactive) | GI50 (HOP-62): > 20.8 µM (inactive) | GI50 (SF-295): 5.73 µM (inactive) | GI50 (EKVX): > 39 µM (inactive) | GI50 (786-0): > 23.8 µM (inactive) | GI50 (DLD-1): > 18 µM (inactive)
